According to patent US20110118298A1, “COMPOSITIONS, KITS, AND METHODS FOR IDENTIFICATION, ASSESSMENT, PREVENTION, AND THERAPY OF CANCER” (INFINITY PHARMACEUTICALS, INC., priority 2009, published 2011):
“Also recorded” adds a separate entry of the source. Structures can show the parent of a compound that is named as a salt.

Assays:
[1] = test system: MAPK pathway (p-bRAF, p-MEK), cleaved caspase 3 in Colo320HSR xenograft; experiment: Pharmacodynamic analysis after a single dose, wild-type xenograft; format: in vivo; details: single 100 mpk dose of IPI-493, Colo320HSR; 100 mg/kg
Method: To further investigate a potential correlation between the effect of IPI-493 on molecular components of the RAS-RAF-ERK pathway and efficacy, pharmacodynamic analysis was performed on mutant bRAF (Colo205, Colo201) and wild-type (Colo320HSR) xenograft models after a single 100 mpk dose. […] Moreover, when p-MEK activity was assessed for all the CRC xengrafts, there was a clear delineation of sensitivity between mutant and wild type models, further supporting the hypothesis that MAPK pathway activity can be a surrogate for IPI-493 efficacy. […] Altogether, these provide rationale for a clinical path in this disease.

H3122 xenograft = experiment: H3122 xenograft, tumor volume; format: in vivo, nude mice; details: IPI-504 75 mg/kg twice weekly
Method: Tumor volume (in mm^3) is shown as a function of days of treatment.
Tumor volumes were assessed as described above.

[2] = test system: squamous cell carcinoma (SCC); experiment: Clinical trial, response to IPI-504 by histology; format: in vivo, human
Text: This example describes the results from a clinical trial that assessed the efficacy of IPI-504 in patients with squamous cell carcinoma (SCC).
FIGS. 13A-13B depict waterfall plots showing responses to IPI-504 according to cancer subtypes analyzed by histology. The cancers examined were adenocarcinoma (shown as #1), bronchioloalveolar carcinoma (BAC) (shown as #2), large cell lung cancer (shown as #3), squamous cell carcinoma (shown as #4), unknown (shown as #5) and control (shown as #6). Each bar represents one patient. The y-axis of FIG. 13A represents % of tumor volume change from baseline.

SMILES	p-bRAF, p-MEK, cleaved caspase 3 in wild type model [1]	tumor response (H3122 xenograft)	patients showing a partial response (PR) ([2]; out of 7 patients with SCC) [patients]	objective response rate (ORR) ([2]; patients with SCC) [%]
CO[C@H]1/C=C\C=C(/C)C(=O)NC2=CC(=O)C(N)=C(C[C@@H](C)C[C@H](OC)[C@H](O)[C@@H](C)/C=C(\C)[C@@H]1OC(N)=O)C2=O [IPI-493, 17-AG]	little effect of IPI-493 administration; also recorded: Minimal changes			
C=CCNc1c(O)cc2c(O)c1C[C@@H](C)C[C@H](OC)[C@H](O)[C@@H](C)/C=C(\C)[C@H](OC(N)=O)[C@@H](OC)/C=C\C=C(/C)C(=O)N2 [IPI-504, retaspimycin hydrochloride]		tumor regression	3	43
